Test results reported in patent publication US20060039856A1, “Magnetic resonance with stimulation” (McLean Hospital Corporation, priority 2001, published 2006).

System: right and left V1 (primary visual cortex) BOLD signal
Experiment: BOLD fMRI of visual cortex during red and blue photic stimulation after oral drug or placebo
Details: for mean BOLD signal change, higher in drug than in placebo condition: all trials, 2.5 mg oral

How did the “mean BOLD signal change, higher in drug than in placebo condition” value (blue light 0.12 lux, drug vs placebo (1.60%)) turn out when `C[C@H](N)Cc1ccccc1.C[C@H](N)Cc1ccccc1.O=S(=O)(O)O` [d-amphetamine, d-amphetamine sulfate] was run?
The value was 28%.

And the “effect of time following drug administration on BOLD signal response (linear regression)” value (blue light, Z=-2.471, P=0.013, decreasing BOLD signal over time)?
The value was “significant effect of time”.

What about the “mean BOLD signal change, higher in drug than in placebo condition” value (red light 0.12 lux, drug vs placebo (0.95%)) of the same molecule?
The value was 30%.

And the “effect of time following drug administration on BOLD signal response (linear regression)” value (red light, Z=-0.470, P=0.638)?
Its value is “no significant effect of drug over time”.
